Values quoted from earlier work in patent publication US20020155997A1 (priority 2000, published 2002).

Tested on: bovine plasma
Conditions: reference standard

For dextran sulfate, the “anticoagulant activity of the standard” value is listed as 25 units/mg.
